Earlier results in US20210100738A1, “OXYGEN DELIVERY BEVERAGE” (RESPIROGEN, INC., priority 2018, published 2021).

Conditions: oral co-administration of lipids, in mammals

| SMILES | increase in bioavailability |
| --- | --- |
| CCCCCc1cc(O)c2c(c1)OC(C)(C)[C@@H]1CCC(C)=C[C@@H]21 [THC, Δ^9-tetrahydrocannabinol] | more than 2.5 fold |
| C=C(C)[C@@H]1CCC(C)=C[C@H]1c1c(O)cc(CCCCC)cc1O [CBD, cannabidiol] | ~3 fold |
